What was measured:
Assay in all cases: relative viability vs DMSO control (72 h) (fraction); higher = more viable cells
[1] = test system: HS729
How it was run: (§1)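 Densities for seeding sarcoma cell lines into 384-well plates were set to give 80–90% confluence. After 24 h, 2.5 µl of serially diluted compound from source plates of 10 mM to 0.0002 mM went in, and plates stayed 72 h at 37 °C in 5% CO2 with 0.1% DMSO vehicle and a 5 µM positive control. Percent growth from ATPLite readings, averaged over up to triplicate wells, served as relative viability, rescaled so 1 means full and 0 means none.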

[2] = test system: SK-ES-1
How it was run: as §1

[3] = test system: A204
How it was run: as §1

[4] = test system: SYO-1
How it was run: as §1

[5] = test system: RD
How it was run: as §1

[6] = test system: KHOS-NP
How it was run: as §1

[7] = test system: SW684
How it was run: as §1

[8] = test system: G401
How it was run: as §1

[9] = test system: VA-ES-BJ
How it was run: as §1

[10] = test system: SW872
How it was run: as §1

[11] = test system: MES-SA
How it was run: as §1

[12] = test system: SK-LMS-1
How it was run: as §1

COCCNc1cc(NC(=O)N2CCCc3cc(CN4CCN(C)CC4=O)c(C=O)nc32)ncc1C#N [Roblitinib]
Settings	relative viability
[1], 0.00017 µM	0.894
[1], 0.00051 µM	0.906
[1], 0.00152 µM	0.906
[1], 0.00457 µM	0.894
[1], 0.01372 µM	0.891
[1], 0.04115 µM	0.876
[1], 0.1235 µM	0.858
[1], 0.3704 µM	0.858
[1], 1.111 µM	0.849
[1], 3.333 µM	0.892
[1], 10 µM	0.914
[2], 0.00017 µM	0.964
[2], 0.00051 µM	0.979
[2], 0.00152 µM	0.986
[2], 0.00457 µM	0.974
[2], 0.01372 µM	1.03
[2], 0.04115 µM	0.973
[2], 0.1235 µM	1.02
[2], 0.3704 µM	0.985
[2], 1.111 µM	0.92
[2], 3.333 µM	0.916
[2], 10 µM	0.74
[3], 0.00017 µM	1.05
[3], 0.00051 µM	1.09
[3], 0.00152 µM	1.03
[3], 0.00457 µM	1.08
[3], 0.01372 µM	1.06
[3], 0.04115 µM	1.07
[3], 0.1235 µM	1.04
[3], 0.3704 µM	1.02
[3], 1.111 µM	1.03
[3], 3.333 µM	0.922
[3], 10 µM	0.812
[4], 0.00017 µM	0.933
[4], 0.00051 µM	0.931
[4], 0.00152 µM	0.9221
[4], 0.00457 µM	0.92
[4], 0.01372 µM	0.914
[4], 0.04115 µM	0.889
[4], 0.1235 µM	0.879
[4], 0.3704 µM	0.855
[4], 1.111 µM	0.867
[4], 3.333 µM	0.845
[4], 10 µM	0.87
[5], 0.00017 µM	1.08
[5], 0.00051 µM	1.074
[5], 0.00152 µM	1.053
[5], 0.00457 µM	1.08
[5], 0.01372 µM	1.08
[5], 0.04115 µM	1.09
[5], 0.1235 µM	1.1
[5], 0.3704 µM	1.118
[5], 1.111 µM	1.04
[5], 3.333 µM	1.08
[5], 10 µM	1.01
[6], 0.00017 µM	1.05
[6], 0.00051 µM	1.03
[6], 0.00152 µM	1.04
[6], 0.00457 µM	1.04
[6], 0.01372 µM	1.05
[6], 0.04115 µM	1.04
[6], 0.1235 µM	1.06
[6], 0.3704 µM	1.05
[6], 1.111 µM	1.05
[6], 3.333 µM	1.04
[6], 10 µM	1.02
[7], 0.00017 µM	1.1
[7], 0.00051 µM	1.09
[7], 0.00152 µM	1.08
[7], 0.00457 µM	1.03
[7], 0.01372 µM	1.04
[7], 0.04115 µM	1.05
[7], 0.1235 µM	1.09
[7], 0.3704 µM	1.08
[7], 1.111 µM	1.13
[7], 3.333 µM	1.09
[7], 10 µM	1.02
[8], 0.00017 µM	0.974
[8], 0.00051 µM	0.955
[8], 0.00152 µM	0.929
[8], 0.00457 µM	0.9122
[8], 0.01372 µM	0.943
[8], 0.04115 µM	0.93
[8], 0.1235 µM	0.96
[8], 0.3704 µM	0.967
[8], 1.111 µM	0.943
[8], 3.333 µM	0.935
[8], 10 µM	0.8671
[9], 0.00017 µM	1.03
[9], 0.00051 µM	1.01
[9], 0.00152 µM	1
[9], 0.00457 µM	1.02
[9], 0.01372 µM	1.02
[9], 0.04115 µM	1.03
[9], 0.1235 µM	1.04
[9], 0.3704 µM	1.03
[9], 1.111 µM	1.04
[9], 3.333 µM	0.999
[9], 10 µM	0.968
[10], 0.00017 µM	0.926
[10], 0.00051 µM	0.924
[10], 0.00152 µM	0.968
[10], 0.00457 µM	0.951
[10], 0.01372 µM	0.939
[10], 0.04115 µM	0.963
[10], 0.1235 µM	0.921
[10], 0.3704 µM	0.977
[10], 1.111 µM	0.9644
[10], 3.333 µM	0.974
[10], 10 µM	0.988
[11], 0.00017 µM	0.912
[11], 0.00051 µM	0.892
[11], 0.00152 µM	0.878
[11], 0.00457 µM	0.885
[11], 0.01372 µM	0.883
[11], 0.04115 µM	0.884
[11], 0.1235 µM	0.879
[11], 0.3704 µM	0.889
[11], 1.111 µM	0.882
[11], 3.333 µM	0.839
[11], 10 µM	0.79
[12], 0.00017 µM	0.941
[12], 0.00051 µM	0.942
[12], 0.00152 µM	0.932
[12], 0.00457 µM	0.957
[12], 0.01372 µM	0.938
[12], 0.04115 µM	0.988
[12], 0.1235 µM	0.921
[12], 0.3704 µM	0.995
[12], 1.111 µM	0.984
[12], 3.333 µM	0.883
[12], 10 µM	0.858

CN1CC[C@@H](NC(=O)Nc2ccc(C#N)cc2)C[C@@H]1c1nc2ccccc2[nH]1 [Glasdegib]
Settings	relative viability
[1], 0.00017 µM	1.07
[1], 0.00051 µM	1.02
[1], 0.00152 µM	1.05
[1], 0.00457 µM	0.993
[1], 0.01372 µM	1.02
[1], 0.04115 µM	1.05
[1], 0.1235 µM	1.03
[1], 0.3704 µM	0.984
[1], 1.111 µM	1.03
[1], 3.333 µM	0.993
[1], 10 µM	1.03
[2], 0.00017 µM	1
[2], 0.00051 µM	1.03
[2], 0.00152 µM	1
[2], 0.00457 µM	1.02
[2], 0.01372 µM	1.01
[2], 0.04115 µM	0.965
[2], 0.1235 µM	0.944
[2], 0.3704 µM	0.975
[2], 1.111 µM	0.944
[2], 3.333 µM	0.77
[2], 10 µM	0.696
[3], 0.00017 µM	1.07
[3], 0.00051 µM	1.074
[3], 0.00152 µM	1.09
[3], 0.00457 µM	1.06
[3], 0.01372 µM	1.09
[3], 0.04115 µM	1.06
[3], 0.1235 µM	1.064
[3], 0.3704 µM	1.05
[3], 1.111 µM	1.04
[3], 3.333 µM	1.02
[3], 10 µM	0.975
[4], 0.00017 µM	1.032
[4], 0.00051 µM	1.01
[4], 0.00152 µM	1.01
[4], 0.00457 µM	0.99
[4], 0.01372 µM	0.973
[4], 0.04115 µM	0.976
[4], 0.1235 µM	0.991
[4], 0.3704 µM	1
[4], 1.111 µM	0.999
[4], 3.333 µM	0.975
[4], 10 µM	0.981
[5], 0.00017 µM	1.02
[5], 0.00051 µM	1.03
[5], 0.00152 µM	1.05
[5], 0.00457 µM	1.04
[5], 0.01372 µM	1.02
[5], 0.04115 µM	0.99
[5], 0.1235 µM	0.988
[5], 0.3704 µM	0.983
[5], 1.111 µM	1.02
[5], 3.333 µM	1
[5], 10 µM	1.06
[6], 0.00017 µM	1.09
[6], 0.00051 µM	1.1
[6], 0.00152 µM	1.1
[6], 0.00457 µM	1.11
[6], 0.01372 µM	0.779
[6], 0.04115 µM	1.1
[6], 0.1235 µM	1.108
[6], 0.3704 µM	1.12
[6], 1.111 µM	1.11
[6], 3.333 µM	1.085
[6], 10 µM	1.02
[7], 0.00017 µM	1.165
[7], 0.00051 µM	1.14
[7], 0.00152 µM	1.19
[7], 0.00457 µM	1.15
[7], 0.01372 µM	1.16
[7], 0.04115 µM	1.177
[7], 0.1235 µM	1.12
[7], 0.3704 µM	1.2
[7], 1.111 µM	1.12
[7], 3.333 µM	1.12
[7], 10 µM	1.12
[8], 0.00017 µM	1.04
[8], 0.00051 µM	1.03
[8], 0.00152 µM	1.02
[8], 0.00457 µM	1.02
[8], 0.01372 µM	1.03
[8], 0.04115 µM	1.03
[8], 0.1235 µM	1.02
[8], 0.3704 µM	0.986
[8], 1.111 µM	0.997
[8], 3.333 µM	0.949
[8], 10 µM	0.934
[9], 0.00017 µM	1.07
[9], 0.00051 µM	1.07
[9], 0.00152 µM	1.06
[9], 0.00457 µM	1.068
[9], 0.01372 µM	1.07
[9], 0.04115 µM	1.06
[9], 0.1235 µM	1.05
[9], 0.3704 µM	1.04
[9], 1.111 µM	1.01
[9], 3.333 µM	1.08
[9], 10 µM	1.06
[10], 0.00017 µM	1.08
[10], 0.00051 µM	1.07
[10], 0.00152 µM	1.08
[10], 0.00457 µM	1.06
[10], 0.01372 µM	1.06
[10], 0.04115 µM	1.05
[10], 0.1235 µM	1.06
[10], 0.3704 µM	1.066
[10], 1.111 µM	1.05
[10], 3.333 µM	1.06
[10], 10 µM	1.06
[11], 0.00017 µM	0.945
[11], 0.00051 µM	0.956
[11], 0.00152 µM	0.976
[11], 0.00457 µM	0.956
[11], 0.01372 µM	0.952
[11], 0.04115 µM	0.915
[11], 0.1235 µM	0.938
[11], 0.3704 µM	0.919
[11], 1.111 µM	0.926
[11], 3.333 µM	0.935
[11], 10 µM	0.85
[12], 0.00017 µM	1.08
[12], 0.00051 µM	1.09
[12], 0.00152 µM	1.111
[12], 0.00457 µM	1.07
[12], 0.01372 µM	1.14
[12], 0.04115 µM	1.11
[12], 0.1235 µM	1.09
[12], 0.3704 µM	1.06
[12], 1.111 µM	1.07
[12], 3.333 µM	1.02
[12], 10 µM	1.03

Source: the supplement of paper PMC10883282
